In US5530126A, “Process for the preparation of substituted 6-(pyrazol-3yl)-1,4-benzoxazin-3-ones” (Monsanto Company, priority 1994, dated 1996):

Experiments:
Format in all cases: in vivo
[1] = system: Annual bluegrass; experiment: Pre-emergence herbicide test; conditions: read-out: % plant inhibition (Anbg); for inhibition at 11210 g/ha: 11.21 kg/ha; for inhibition at 1120 g/ha: 1.12 kg/ha
How it was run: (§1)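 Greenhouse pans: topsoil compacted to within 0.95-1.27 cm of top, seeds laid on surface, active ingredient (organic solvent or water carrier) applied, untreated topsoil cover added. Watered from below; % inhibition at ~11 d.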

[2] = system: Barnyardgrass; experiment: Pre-emergence herbicide test; conditions: Echinochloa crus-galli, read-out: % plant inhibition (Bygr); for inhibition at 11210 g/ha: 11.21 kg/ha; for inhibition at 1120 g/ha: 1.12 kg/ha
How it was run: as §1

[3] = system: Cocklebur; experiment: Pre-emergence herbicide test; conditions: Xanthium strumarium, read-out: % plant inhibition (Cobu); for inhibition at 11210 g/ha: 11.21 kg/ha; for inhibition at 1120 g/ha: 1.12 kg/ha
How it was run: as §1

[4] = system: Downy Brome; experiment: Pre-emergence herbicide test; conditions: Bromus tectorum, read-out: % plant inhibition (Dobr); for inhibition at 11210 g/ha: 11.21 kg/ha; for inhibition at 1120 g/ha: 1.12 kg/ha
How it was run: as §1

[5] = system: Indian Mustard; experiment: Pre-emergence herbicide test; conditions: Brassica juncea, read-out: % plant inhibition (Inmu); for inhibition at 11210 g/ha: 11.21 kg/ha; for inhibition at 1120 g/ha: 1.12 kg/ha
How it was run: as §1

[6] = system: Morningglory; experiment: Pre-emergence herbicide test; conditions: Ipomoea, read-out: % plant inhibition (Mogl); for inhibition at 11210 g/ha: 11.21 kg/ha; for inhibition at 1120 g/ha: 1.12 kg/ha
How it was run: as §1

[7] = system: Seedling johnsongrass; experiment: Pre-emergence herbicide test; conditions: Sorghum halepense, read-out: % plant inhibition (Sejg); for inhibition at 11210 g/ha: 11.21 kg/ha; for inhibition at 1120 g/ha: 1.12 kg/ha
How it was run: as §1

[8] = system: Velvetleaf; experiment: Pre-emergence herbicide test; conditions: Abutilon theophrasti, read-out: % plant inhibition (Vele); for inhibition at 11210 g/ha: 11.21 kg/ha; for inhibition at 1120 g/ha: 1.12 kg/ha
How it was run: as §1

[9] = system: Wild buckwheat; experiment: Pre-emergence herbicide test; conditions: Fallopia convolvulus, read-out: % plant inhibition (Wibw); for inhibition at 11210 g/ha: 11.21 kg/ha; for inhibition at 1120 g/ha: 1.12 kg/ha
How it was run: as §1

[10] = system: Yellow nutsedge; experiment: Pre-emergence herbicide test; conditions: Cyperus, read-out: % plant inhibition (Yens); for inhibition at 11210 g/ha: 11.21 kg/ha; for inhibition at 1120 g/ha: 1.12 kg/ha
How it was run: as §1

[11] = system: Annual bluegrass; experiment: Post-emergence herbicide test; conditions: read-out: % plant inhibition (Anbg); for inhibition at 11210 g/ha: 11.21 kg/ha; for inhibition at 1120 g/ha: 1.12 kg/ha
How it was run: (§2)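 Injury scored as percent inhibition against untreated control, usually at 11 days and occasionally at 25 days post-treatment. Greenhouse plants (2–3 weeks) received an atomized spray (~0.4% emulsifier, 1870 L/Ha, 10 psig).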

[12] = system: Barnyardgrass; experiment: Post-emergence herbicide test; conditions: Echinochloa crus-galli, read-out: % plant inhibition (Bygr); for inhibition at 11210 g/ha: 11.21 kg/ha; for inhibition at 1120 g/ha: 1.12 kg/ha
How it was run: as §2

[13] = system: Cocklebur; experiment: Post-emergence herbicide test; conditions: Xanthium strumarium, read-out: % plant inhibition (Cobu); for inhibition at 11210 g/ha: 11.21 kg/ha; for inhibition at 1120 g/ha: 1.12 kg/ha
How it was run: as §2

[14] = system: Downy Brome; experiment: Post-emergence herbicide test; conditions: Bromus tectorum, read-out: % plant inhibition (Dobr); for inhibition at 11210 g/ha: 11.21 kg/ha; for inhibition at 1120 g/ha: 1.12 kg/ha
How it was run: as §2

[15] = system: Indian Mustard; experiment: Post-emergence herbicide test; conditions: Brassica juncea, read-out: % plant inhibition (Inmu); for inhibition at 11210 g/ha: 11.21 kg/ha; for inhibition at 1120 g/ha: 1.12 kg/ha
How it was run: as §2

[16] = system: Morningglory; experiment: Post-emergence herbicide test; conditions: Ipomoea, read-out: % plant inhibition (Mogl); for inhibition at 11210 g/ha: 11.21 kg/ha; for inhibition at 1120 g/ha: 1.12 kg/ha
How it was run: as §2

[17] = system: Seedling johnsongrass; experiment: Post-emergence herbicide test; conditions: Sorghum halepense, read-out: % plant inhibition (Sejg); for inhibition at 11210 g/ha: 11.21 kg/ha; for inhibition at 1120 g/ha: 1.12 kg/ha
How it was run: as §2

[18] = system: Velvetleaf; experiment: Post-emergence herbicide test; conditions: Abutilon theophrasti, read-out: % plant inhibition (Vele); for inhibition at 11210 g/ha: 11.21 kg/ha; for inhibition at 1120 g/ha: 1.12 kg/ha
How it was run: as §2

[19] = system: Wild buckwheat; experiment: Post-emergence herbicide test; conditions: Fallopia convolvulus, read-out: % plant inhibition (Wibw); for inhibition at 11210 g/ha: 11.21 kg/ha; for inhibition at 1120 g/ha: 1.12 kg/ha
How it was run: as §2

[20] = system: Yellow nutsedge; experiment: Post-emergence herbicide test; conditions: Cyperus, read-out: % plant inhibition (Yens); for inhibition at 11210 g/ha: 11.21 kg/ha; for inhibition at 1120 g/ha: 1.12 kg/ha
How it was run: as §2

SMILES	inhibition at 11210 g/ha [1]	inhibition at 11210 g/ha [2]	inhibition at 11210 g/ha [3]	inhibition at 11210 g/ha [4]	inhibition at 11210 g/ha [5]	inhibition at 11210 g/ha [6]	inhibition at 11210 g/ha [7]	inhibition at 11210 g/ha [8]	inhibition at 11210 g/ha [9]	inhibition at 11210 g/ha [10]	inhibition at 11210 g/ha [11]	inhibition at 11210 g/ha [12]	inhibition at 11210 g/ha [13]	inhibition at 11210 g/ha [14]	inhibition at 11210 g/ha [15]	inhibition at 11210 g/ha [16]	inhibition at 11210 g/ha [17]	inhibition at 11210 g/ha [18]	inhibition at 11210 g/ha [19]	inhibition at 11210 g/ha [20]	further results
Cn1nc(C(F)(F)Cl)c(Cl)c1-c1ccc(Cl)cc1 [Compound 67]	40%	0%	0%	40%	50%	90%	40%	80%	90%	0%	20%	40%	20%	40%	40%	70%	80%	80%	100%	20%	
CC(=NOCC(N)=O)c1cc(-c2nn(C)c(C(F)(F)F)c2Cl)c(F)cc1Cl [Compound 105]																					inhibition at 1120 g/ha [1]: 0%; inhibition at 1120 g/ha [2]: 70%; inhibition at 1120 g/ha [3]: 10%; inhibition at 1120 g/ha [4]: 40%; inhibition at 1120 g/ha [5]: 80%; inhibition at 1120 g/ha [6]: 80%; inhibition at 1120 g/ha [7]: 60%; inhibition at 1120 g/ha [8]: 90%; inhibition at 1120 g/ha [9]: 80%; inhibition at 1120 g/ha [10]: 20%; inhibition at 1120 g/ha [11]: 30%; inhibition at 1120 g/ha [12]: 20%; inhibition at 1120 g/ha [13]: 20%; inhibition at 1120 g/ha [14]: 0%; inhibition at 1120 g/ha [15]: 30%; inhibition at 1120 g/ha [16]: 40%; inhibition at 1120 g/ha [17]: 20%; inhibition at 1120 g/ha [18]: 80%; inhibition at 1120 g/ha [19]: 100%; inhibition at 1120 g/ha [20]: 20%
CCS(=O)(=O)N(c1cc(-c2nn(C)c(C(F)(F)F)c2Cl)c(Cl)cc1Cl)S(=O)(=O)CC [Compound 90]	10%	10%	0%	10%	10%	10%	50%	20%	30%	0%	10%	0%	30%	10%	50%	60%	0%	100%	50%	0%	
Cn1nc(-c2cc(C(C)(C)C#N)c(Cl)cc2F)c(Cl)c1C(F)(F)F [Compound 103]																					inhibition at 1120 g/ha [1]: 20%; inhibition at 1120 g/ha [2]: 20%; inhibition at 1120 g/ha [3]: 0%; inhibition at 1120 g/ha [4]: 70%; inhibition at 1120 g/ha [5]: 40%; inhibition at 1120 g/ha [6]: 60%; inhibition at 1120 g/ha [7]: 40%; inhibition at 1120 g/ha [8]: 50%; inhibition at 1120 g/ha [9]: 100%; inhibition at 1120 g/ha [10]: 0%; inhibition at 1120 g/ha [11]: 40%; inhibition at 1120 g/ha [12]: 80%; inhibition at 1120 g/ha [13]: 60%; inhibition at 1120 g/ha [14]: 30%; inhibition at 1120 g/ha [15]: 70%; inhibition at 1120 g/ha [16]: 80%; inhibition at 1120 g/ha [17]: 70%; inhibition at 1120 g/ha [18]: 100%; inhibition at 1120 g/ha [19]: 100%; inhibition at 1120 g/ha [20]: 10%
Cn1nc(C(F)F)c(Cl)c1-c1cc(F)ccc1F [Compound 62]	0%	20%	0%	0%	20%	30%	30%	60%	20%	0%	0%	0%	0%	0%	0%	0%	0%	10%	0%	0%	
CCOC(=O)CON=Cc1cc(-c2nn(C)c(C(F)(F)F)c2Cl)c(F)cc1Cl [Compound 129]																					inhibition at 1120 g/ha [1]: 0%; inhibition at 1120 g/ha [2]: 20%; inhibition at 1120 g/ha [3]: 90%; inhibition at 1120 g/ha [4]: 40%; inhibition at 1120 g/ha [5]: 90%; inhibition at 1120 g/ha [6]: 100%; inhibition at 1120 g/ha [7]: 60%; inhibition at 1120 g/ha [8]: 100%; inhibition at 1120 g/ha [9]: 100%; inhibition at 1120 g/ha [10]: 0%; inhibition at 1120 g/ha [11]: 40%; inhibition at 1120 g/ha [12]: 80%; inhibition at 1120 g/ha [13]: 100%; inhibition at 1120 g/ha [14]: 80%; inhibition at 1120 g/ha [15]: 90%; inhibition at 1120 g/ha [16]: 90%; inhibition at 1120 g/ha [17]: 90%; inhibition at 1120 g/ha [18]: 100%; inhibition at 1120 g/ha [19]: 100%; inhibition at 1120 g/ha [20]: 30%
Cn1nc(C(F)(F)F)c(Cl)c1-c1ccc(Cl)cc1F [Compound 79]	90%	80%	30%	80%	100%	100%	80%	100%	100%	20%	60%	20%	20%	20%	90%	60%	30%	100%	100%	10%	
